# Experimental data published in ChEMBL document CHEMBL3885881, “DrugMatrix”.
# Species: Rattus norvegicus
# Test: DrugMatrix - Regimen: Daily Repeat
# Format: toxicity, organism-based, Sprague-Dawley
# Set-up: regimen Daily Repeat, gender Male, age 6-8 weeks
# Conditions: in vivo, sc, route subcutaneous, […]; for BASOPHIL / EOSINOPHIL / ERYTHROCYTE COUNT / HEMATOCRIT / HEMOGLOBIN / LEUKOCYTE COUNT / LYMPHOCYTE / MEAN CORPUSCULAR HEMOGLOBIN / MEAN CORPUSCULAR HEMOGLOBIN CONCENTRATION / MEAN CORPUSCULAR VOLUME / MONOCYTE / NEUTROPHIL / PLATELET COUNT: tissue Blood; for ALANINE AMINOTRANSFERASE / ALBUMIN / ALKALINE PHOSPHATASE / ASPARTATE AMINOTRANSFERASE / BLOOD UREA NITROGEN / CARBON DIOXIDE / CHLORIDE / CHOLESTEROL / CREATININE / GLUCOSE / LACTATE DEHYDROGENASE / LIPASE / PHOSPHORUS / POTASSIUM / TOTAL BILIRUBIN / TOTAL PROTEIN / URIC ACID: tissue Plasma
# [1] = 4 mg/kg, 72 h, dose level Low, time 3 day
# [2] = 4 mg/kg, 120 h, dose level Low, time 5 day
# [3] = 36 mg/kg, 72 h, dose level High, time 3 day
# [4] = 36 mg/kg, 120 h, dose level High, time 5 day
smiles,measurement,setting,value
Nc1c2ccccc2nc2ccccc12 [AMINACRINE],BASOPHIL,[1],0%
same,EOSINOPHIL,[1],0.67%
same,ERYTHROCYTE COUNT,[1],6.9 x10E6/uL
same,HEMATOCRIT,[1],42.07%
same,HEMOGLOBIN,[1],14.07 G/DL
same,LEUKOCYTE COUNT,[1],11.4 x10E3/uL
same,LYMPHOCYTE,[1],65.33%
same,MEAN CORPUSCULAR HEMOGLOBIN,[1],20.43 pg
same,MEAN CORPUSCULAR HEMOGLOBIN CONCENTRATION,[1],33.4 G/DL
same,MEAN CORPUSCULAR VOLUME,[1],61.1 fL
same,MONOCYTE,[1],8.67%
same,NEUTROPHIL,[1],25.67%
same,PLATELET COUNT,[1],1093.67 x10E3/uL
same,ALANINE AMINOTRANSFERASE,[1],44 u/L
same,ALBUMIN,[1],3.9 G/DL
same,ALKALINE PHOSPHATASE,[1],311.67 u/L
same,ASPARTATE AMINOTRANSFERASE,[1],81 u/L
same,BLOOD UREA NITROGEN,[1],14.67 mg/dL
same,CARBON DIOXIDE,[1],22.33 mmol/L
same,CHLORIDE,[1],106 MEQ/L
same,CHOLESTEROL,[1],68.33 mg/dL
same,CREATININE,[1],0.3 mg/dL
same,GLUCOSE,[1],144.67 mg/dL
same,LACTATE DEHYDROGENASE,[1],297.67 u/L
same,LIPASE,[1],8.67 u/L
same,PHOSPHORUS,[1],9.93 mg/dL
same,POTASSIUM,[1],5.93 MEQ/L
same,TOTAL BILIRUBIN,[1],0.1 mg/dL
same,TOTAL PROTEIN,[1],6 G/DL
same,URIC ACID,[1],0.93 mg/dL
same,BASOPHIL,[2],0.33%
same,EOSINOPHIL,[2],0%
same,ERYTHROCYTE COUNT,[2],6.82 x10E6/uL
same,HEMATOCRIT,[2],42.2%
same,HEMOGLOBIN,[2],13.8 G/DL
same,LEUKOCYTE COUNT,[2],13.23 x10E3/uL
same,LYMPHOCYTE,[2],62%
same,MEAN CORPUSCULAR HEMOGLOBIN,[2],20.2 pg
same,MEAN CORPUSCULAR HEMOGLOBIN CONCENTRATION,[2],32.67 G/DL
same,MEAN CORPUSCULAR VOLUME,[2],61.87 fL
same,MONOCYTE,[2],3%
same,NEUTROPHIL,[2],34.33%
same,PLATELET COUNT,[2],1028 x10E3/uL
same,ALANINE AMINOTRANSFERASE,[2],47 u/L
same,ALBUMIN,[2],3.4 G/DL
same,ALKALINE PHOSPHATASE,[2],316 u/L
same,ASPARTATE AMINOTRANSFERASE,[2],78.33 u/L
same,BLOOD UREA NITROGEN,[2],17.33 mg/dL
same,CARBON DIOXIDE,[2],22.67 mmol/L
same,CHLORIDE,[2],100.33 MEQ/L
same,CHOLESTEROL,[2],66.33 mg/dL
same,CREATININE,[2],0.3 mg/dL
same,GLUCOSE,[2],141.67 mg/dL
same,LACTATE DEHYDROGENASE,[2],188.67 u/L
same,LIPASE,[2],8 u/L
same,PHOSPHORUS,[2],9.9 mg/dL
same,POTASSIUM,[2],5.47 MEQ/L
same,TOTAL BILIRUBIN,[2],0.1 mg/dL
same,TOTAL PROTEIN,[2],6.13 G/DL
same,URIC ACID,[2],0.9 mg/dL
same,BASOPHIL,[3],0.33%
same,EOSINOPHIL,[3],0.33%
same,ERYTHROCYTE COUNT,[3],6.95 x10E6/uL
same,HEMATOCRIT,[3],42.07%
same,HEMOGLOBIN,[3],14.1 G/DL
same,LEUKOCYTE COUNT,[3],8.8 x10E3/uL
same,LYMPHOCYTE,[3],76%
same,MEAN CORPUSCULAR HEMOGLOBIN,[3],20.3 pg
same,MEAN CORPUSCULAR HEMOGLOBIN CONCENTRATION,[3],33.47 G/DL
same,MEAN CORPUSCULAR VOLUME,[3],60.57 fL
same,MONOCYTE,[3],3%
same,NEUTROPHIL,[3],20.33%
same,PLATELET COUNT,[3],1177.67 x10E3/uL
same,ALANINE AMINOTRANSFERASE,[3],44.33 u/L
same,ALBUMIN,[3],3.27 G/DL
same,ALKALINE PHOSPHATASE,[3],226.33 u/L
same,ASPARTATE AMINOTRANSFERASE,[3],101.67 u/L
same,BLOOD UREA NITROGEN,[3],17 mg/dL
same,CARBON DIOXIDE,[3],22 mmol/L
same,CHLORIDE,[3],106 MEQ/L
same,CHOLESTEROL,[3],62 mg/dL
same,CREATININE,[3],0.3 mg/dL
same,GLUCOSE,[3],151 mg/dL
same,LACTATE DEHYDROGENASE,[3],142.33 u/L
same,LIPASE,[3],7.67 u/L
same,PHOSPHORUS,[3],9.3 mg/dL
same,POTASSIUM,[3],6 MEQ/L
same,TOTAL BILIRUBIN,[3],0.1 mg/dL
same,TOTAL PROTEIN,[3],6.07 G/DL
same,URIC ACID,[3],1.17 mg/dL
same,BASOPHIL,[4],0%
same,EOSINOPHIL,[4],0%
same,ERYTHROCYTE COUNT,[4],6.75 x10E6/uL
same,HEMATOCRIT,[4],41.37%
same,HEMOGLOBIN,[4],13.1 G/DL
same,LEUKOCYTE COUNT,[4],11.17 x10E3/uL
same,LYMPHOCYTE,[4],59.67%
same,MEAN CORPUSCULAR HEMOGLOBIN,[4],19.43 pg
same,MEAN CORPUSCULAR HEMOGLOBIN CONCENTRATION,[4],31.73 G/DL
same,MEAN CORPUSCULAR VOLUME,[4],61.3 fL
same,MONOCYTE,[4],4.33%
same,NEUTROPHIL,[4],35.67%
same,PLATELET COUNT,[4],1310.67 x10E3/uL
same,ALANINE AMINOTRANSFERASE,[4],40.67 u/L
same,ALBUMIN,[4],2.83 G/DL
same,ALKALINE PHOSPHATASE,[4],304.33 u/L
same,ASPARTATE AMINOTRANSFERASE,[4],111 u/L
same,BLOOD UREA NITROGEN,[4],17.33 mg/dL
same,CARBON DIOXIDE,[4],22 mmol/L
same,CHLORIDE,[4],101.67 MEQ/L
same,CHOLESTEROL,[4],48 mg/dL
same,CREATININE,[4],0.3 mg/dL
same,GLUCOSE,[4],157.67 mg/dL
same,LACTATE DEHYDROGENASE,[4],113.33 u/L
same,LIPASE,[4],7 u/L
same,PHOSPHORUS,[4],9 mg/dL
same,POTASSIUM,[4],5.17 MEQ/L
same,TOTAL BILIRUBIN,[4],0.1 mg/dL
same,TOTAL PROTEIN,[4],5.5 G/DL
same,URIC ACID,[4],0.97 mg/dL
